According to patent US12441726B2, “Compounds and uses thereof” (Foghorn Therapeutics Inc., priority 2020, dated 2025):

What was measured:
BRM = BRM (Homo sapiens, UniProt P51531); assay: ATPase catalytic activity assay (ADP-Glo), BRM; conditions: 30 nM BRM, 400 μM ATP; for IC50: BRM ATPase: IC50 (uM)
BRG-1 = BRG-1 (Homo sapiens, UniProt P51532); assay: ATPase catalytic activity assay (ADP-Glo), BRG-1; conditions: for Emax: 1 h, read-out: BRG1 Max % Inhibition, ADP-Glo, 30 nM BRG-1, 400 μM ATP
Sequence of BRG-1 (P51532 whole entry): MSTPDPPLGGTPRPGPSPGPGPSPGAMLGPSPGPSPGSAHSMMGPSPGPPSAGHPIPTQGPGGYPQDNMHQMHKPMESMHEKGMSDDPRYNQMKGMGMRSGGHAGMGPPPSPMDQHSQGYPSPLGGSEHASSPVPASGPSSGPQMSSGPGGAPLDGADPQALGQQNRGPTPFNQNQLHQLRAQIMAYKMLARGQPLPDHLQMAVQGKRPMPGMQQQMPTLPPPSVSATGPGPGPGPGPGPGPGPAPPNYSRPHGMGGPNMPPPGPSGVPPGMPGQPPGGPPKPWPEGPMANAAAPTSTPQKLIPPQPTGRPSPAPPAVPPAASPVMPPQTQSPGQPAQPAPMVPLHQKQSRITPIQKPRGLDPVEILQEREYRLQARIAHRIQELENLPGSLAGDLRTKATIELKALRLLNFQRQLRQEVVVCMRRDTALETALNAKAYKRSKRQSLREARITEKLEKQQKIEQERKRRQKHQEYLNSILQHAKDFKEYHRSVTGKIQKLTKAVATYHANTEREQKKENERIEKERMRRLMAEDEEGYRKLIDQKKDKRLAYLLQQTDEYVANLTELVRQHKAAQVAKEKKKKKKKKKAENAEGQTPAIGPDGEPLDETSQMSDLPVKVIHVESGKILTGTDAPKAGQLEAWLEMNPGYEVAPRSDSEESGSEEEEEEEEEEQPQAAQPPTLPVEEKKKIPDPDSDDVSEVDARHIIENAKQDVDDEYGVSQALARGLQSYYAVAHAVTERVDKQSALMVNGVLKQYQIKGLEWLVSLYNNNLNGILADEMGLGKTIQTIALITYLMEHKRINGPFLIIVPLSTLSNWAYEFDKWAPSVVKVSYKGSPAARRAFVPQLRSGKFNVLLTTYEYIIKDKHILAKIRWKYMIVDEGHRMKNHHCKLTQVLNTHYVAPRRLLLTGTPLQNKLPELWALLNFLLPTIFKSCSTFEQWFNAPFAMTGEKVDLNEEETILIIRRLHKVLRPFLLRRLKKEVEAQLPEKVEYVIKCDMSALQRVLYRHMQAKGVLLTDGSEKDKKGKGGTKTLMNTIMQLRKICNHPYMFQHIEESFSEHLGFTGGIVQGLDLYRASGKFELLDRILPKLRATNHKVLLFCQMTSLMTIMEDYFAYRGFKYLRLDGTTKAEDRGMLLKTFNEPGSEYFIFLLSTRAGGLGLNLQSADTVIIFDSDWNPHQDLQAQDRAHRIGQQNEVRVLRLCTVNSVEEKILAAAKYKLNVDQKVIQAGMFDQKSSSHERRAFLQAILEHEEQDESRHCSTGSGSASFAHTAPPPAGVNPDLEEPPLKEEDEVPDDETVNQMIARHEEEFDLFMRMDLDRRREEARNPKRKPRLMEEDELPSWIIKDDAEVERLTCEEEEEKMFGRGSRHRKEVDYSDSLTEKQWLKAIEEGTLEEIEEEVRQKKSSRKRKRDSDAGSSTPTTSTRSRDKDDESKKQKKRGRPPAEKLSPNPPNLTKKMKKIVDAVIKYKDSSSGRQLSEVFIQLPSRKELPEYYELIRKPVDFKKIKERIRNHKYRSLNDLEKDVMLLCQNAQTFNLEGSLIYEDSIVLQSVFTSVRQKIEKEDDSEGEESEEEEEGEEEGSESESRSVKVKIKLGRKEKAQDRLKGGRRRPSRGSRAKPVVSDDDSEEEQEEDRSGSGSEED

Sequence of BRM (P51531 whole entry): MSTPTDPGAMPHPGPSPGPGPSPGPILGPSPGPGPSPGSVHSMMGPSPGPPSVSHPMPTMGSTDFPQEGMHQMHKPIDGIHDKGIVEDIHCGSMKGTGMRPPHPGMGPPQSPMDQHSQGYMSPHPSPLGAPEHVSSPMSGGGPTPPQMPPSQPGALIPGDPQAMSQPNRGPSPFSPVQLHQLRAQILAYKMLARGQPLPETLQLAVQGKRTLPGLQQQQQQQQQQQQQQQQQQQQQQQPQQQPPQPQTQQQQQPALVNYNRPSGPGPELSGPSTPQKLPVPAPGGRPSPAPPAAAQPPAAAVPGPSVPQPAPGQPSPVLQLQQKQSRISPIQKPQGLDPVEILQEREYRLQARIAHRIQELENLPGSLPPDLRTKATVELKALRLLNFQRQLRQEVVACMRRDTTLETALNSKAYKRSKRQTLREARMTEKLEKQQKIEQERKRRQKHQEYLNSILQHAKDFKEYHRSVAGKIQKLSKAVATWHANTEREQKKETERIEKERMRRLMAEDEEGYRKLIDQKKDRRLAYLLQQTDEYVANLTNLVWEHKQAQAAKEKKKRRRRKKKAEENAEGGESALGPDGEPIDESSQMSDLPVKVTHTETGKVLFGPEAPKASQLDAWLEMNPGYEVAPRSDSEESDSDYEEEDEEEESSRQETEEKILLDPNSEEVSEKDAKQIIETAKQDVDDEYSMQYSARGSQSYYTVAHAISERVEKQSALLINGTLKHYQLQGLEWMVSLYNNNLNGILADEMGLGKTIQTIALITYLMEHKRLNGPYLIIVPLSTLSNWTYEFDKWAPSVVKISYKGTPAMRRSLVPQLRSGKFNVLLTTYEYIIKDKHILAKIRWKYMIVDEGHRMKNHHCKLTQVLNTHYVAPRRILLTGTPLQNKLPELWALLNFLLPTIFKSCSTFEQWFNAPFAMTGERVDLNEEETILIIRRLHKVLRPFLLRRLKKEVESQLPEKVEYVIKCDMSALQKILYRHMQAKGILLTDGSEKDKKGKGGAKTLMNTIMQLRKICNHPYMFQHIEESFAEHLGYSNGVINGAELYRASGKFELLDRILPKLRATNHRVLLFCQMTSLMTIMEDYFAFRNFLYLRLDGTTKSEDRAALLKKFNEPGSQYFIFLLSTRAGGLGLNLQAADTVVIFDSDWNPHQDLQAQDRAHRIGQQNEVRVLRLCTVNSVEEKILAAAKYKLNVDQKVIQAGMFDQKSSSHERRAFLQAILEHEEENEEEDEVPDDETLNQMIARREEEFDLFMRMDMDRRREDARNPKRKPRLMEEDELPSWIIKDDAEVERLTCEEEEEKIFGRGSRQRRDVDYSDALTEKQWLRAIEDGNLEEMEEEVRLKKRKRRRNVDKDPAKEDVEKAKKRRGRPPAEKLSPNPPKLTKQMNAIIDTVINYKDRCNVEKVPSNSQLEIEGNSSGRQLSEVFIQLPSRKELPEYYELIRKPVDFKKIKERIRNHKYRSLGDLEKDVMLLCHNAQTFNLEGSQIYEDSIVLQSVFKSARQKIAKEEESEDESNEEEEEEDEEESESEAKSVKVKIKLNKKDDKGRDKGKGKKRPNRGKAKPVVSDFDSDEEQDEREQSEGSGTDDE

Row | BRM Max % Inhibition (BRM) | IC50 (BRM) | IC50 (BRG-1) | Emax (BRG-1) | SMILES
1 | 99% | < 0.1 µM | < 100 nM | 97% | COC1CCN(c2nccc(-c3ccc4cnc(CNC(=O)c5ccc6c(c5)[C@](C)(C#N)COC6)cc4n3)n2)C1 (stereo partly shown) [Compound 422]
2 | 98% | < 0.1 µM | 100 to 500 nM | 89% | COc1cncc(-c2ccc3cnc(CNC(=O)c4ccc5c(c4)[C@](C)(C#N)COC5)cc3n2)n1 [Compound 423]
3 | 99% | < 0.1 µM | < 100 nM | 96% | CN(C)c1nccc(-c2ccc3cnc(CNC(=O)c4ccc5c(c4)[C@](C)(C#N)COC5)cc3n2)n1 [Compound 424]
4 | 98% | < 0.1 µM | 100 to 500 nM | 93% | C[C@@]1(C#N)COCc2ccc(C(=O)NCc3cc4nc(-n5cc(F)c(N6CCC6)n5)ccc4cn3)cc21 [Compound 425]
5 | 97% | 0.1 to 0.5 µM | 500 to 1000 nM | 78% | C[C@@]1(C#N)COCc2ccc(C(=O)NCc3cc4nc(-n5ccc(N6CCC6)n5)ccc4cn3)cc21 [Compound 426]
6 | 99% | < 0.1 µM | 100 to 500 nM | 87% | CN1Cc2nc(-c3ccc4cnc(CNC(=O)c5ccc6c(c5)[C@](C)(C#N)COC6)cc4n3)ccc2C1=O [Compound 427]
7 | 97% | 0.1 to 0.5 µM | 500 to 1000 nM | 65% | C[C@@]1(F)COCc2c(F)cc(C(=O)NCc3cc4nc(-c5ccccc5)ccc4cn3)cc21 [Compound 428]
8 | 99% | < 0.1 µM | 100 to 500 nM | 93% | C[C@@]1(F)COCc2ccc(C(=O)NCc3cc4nc(-c5ccnc(N6CCC6)n5)ccc4cn3)cc21 [Compound 429]
9 | 100% | < 0.1 µM | 100 to 500 nM | 92% | COC1CN(c2nccc(-c3ccc4cnc(CNC(=O)c5ccc6c(c5)[C@](C)(C#N)COC6)cc4n3)n2)C1 [Compound 430]
10 | 86% | 0.1 to 0.5 µM | 500 to 1000 nM | 53% | C[C@@]1(C#N)COCc2ccc(C(=O)NCc3cc4nc(-c5ccccc5OCCO)ccc4cn3)cc21 [Compound 431]
11 | 98% | < 0.1 µM | 100 to 500 nM | 88% | COc1nccc(-c2ccc3cnc(CNC(=O)c4ccc5c(c4)[C@](C)(C#N)COC5)cc3n2)c1F [Compound 432]
12 | 96% | 0.1 to 0.5 µM | 500 to 1000 nM | 59% | Cc1nn(-c2ccc3cnc(CNC(=O)c4ccc5c(c4)[C@](C)(C#N)COC5)cc3n2)cc1F [Compound 433]
13 | 100% | < 0.1 µM | < 100 nM | 92% | Cn1ccc2c(F)cc(-c3ccc4cnc(CNC(=O)c5ccc6c(c5)[C@](C)(C#N)COC6)cc4n3)cc2c1=O [Compound 434]
14 | 100% | < 0.1 µM | 100 to 500 nM | 93% | C[C@@]1(C#N)COCc2ccc(C(=O)NCc3cc4nc(-c5cncc(N6CCOCC6)n5)ccc4cn3)cc21 [Compound 435]
15 | 100% | < 0.1 µM | 100 to 500 nM | 85% | C[C@@]1(C#N)COCc2ccc(C(=O)NCc3cc4nc(-c5cnc6cccnn56)ccc4cn3)cc21 [Compound 436]
16 | 99% | < 0.1 µM | 100 to 500 nM | 87% | C[C@@]1(C#N)COCc2ccc(C(=O)NCc3cc4nc(-c5ccnc(N6CCC6)c5)ccc4cn3)cc21 [Compound 437]
17 | 84% | 0.1 to 0.5 µM | > 1000 nM | 28% | C[C@@]1(C#N)COCc2ccc(C(=O)NCc3cc4nc(-c5ccncc5)sc4cn3)cc21 [Compound 438]
18 | 88% | 0.1 to 0.5 µM | > 1000 nM | 36% | C[C@@]1(C#N)COCc2ccc(C(=O)NCc3cc4nc(-c5cccnc5)sc4cn3)cc21 [Compound 439]
19 | 88% | 0.1 to 0.5 µM | > 1000 nM | 40% | C[C@@]1(C#N)COCc2ccc(C(=O)NCc3cc4nc(-c5ccccn5)sc4cn3)cc21 [Compound 440]
20 | 97% | 0.1 to 0.5 µM | 500 to 1000 nM | 80% | C[C@@]1(C#N)COCc2ccc(C(=O)NCc3cc4nc(-c5cncc(N6CCC6)c5)ccc4cn3)cc21 [Compound 441]
21 | 96% | < 0.1 µM | 500 to 1000 nM | 75% | COc1cc(-c2ccc3cnc(CNC(=O)c4ccc5c(c4)[C@](C)(C#N)COC5)cc3n2)nc(N2CCC2)n1 [Compound 442]
22 | 96% | 0.1 to 0.5 µM | 100 to 500 nM | 82% | Cn1ccc2nc(-c3ccc4cnc(CNC(=O)c5ccc6c(c5)[C@](C)(C#N)COC6)cc4n3)sc2c1=O [Compound 443]

Row | BRM Max % Inhibition (BRM) | IC50 (BRM) | IC50 (BRG-1) | Emax (BRG-1) | SMILES
23 | 93% | 0.1 to 0.5 µM | 500 to 1000 nM | 67% | Cc1nccc(-c2ccc3cnc(CNC(=O)c4ccc5c(c4)[C@](C)(C#N)COC5)cc3n2)n1 [Compound 444]
24 | 96% | 0.1 to 0.5 µM | 500 to 1000 nM | 72% | COC1CN(C(=O)c2cccc(-c3ccc4cnc(CNC(=O)c5ccc6c(c5)[C@](C)(C#N)COC6)cc4n3)c2)C1 [Compound 445]
25 | 87% | 0.1 to 0.5 µM | > 1000 nM | 44% | COc1cc(-c2ccc3cnc(CNC(=O)c4ccc5c(c4)[C@](C)(C#N)COC5)cc3n2)c(F)cn1 [Compound 446]
26 | 95% | 0.1 to 0.5 µM | 500 to 1000 nM | 84% | C[C@@]1(C#N)COCc2ccc(C(=O)NCc3cc4nc(-c5ccn6nccc6n5)ccc4cn3)cc21 [Compound 447]
27 | 97% | < 0.1 µM | 100 to 500 nM | 93% | Cn1ncc2ccc(-c3ccc4cnc(CNC(=O)c5ccc6c(c5)[C@](C)(C#N)COC6)cc4n3)cc2c1=O [Compound 448]
28 | 92% | 0.1 to 0.5 µM | > 1000 nM | 50% | C[C@@]1(C#N)COCc2ccc(C(=O)NCc3cc4nc(-c5cc(F)c(=O)n(C(F)F)c5)ccc4cn3)cc21 [Compound 449]
29 | 96% | 0.1 to 0.5 µM | 500 to 1000 nM | 73% | CNC(=O)c1cc(-c2ccc3cnc(CNC(=O)c4ccc5c(c4)[C@](C)(C#N)COC5)cc3n2)ccn1 [Compound 450]
30 | 93% | 0.1 to 0.5 µM | 500 to 1000 nM | 58% | C[C@@]1(C#N)COCc2ccc(C(=O)NCc3cc4nc(-c5ccncc5)ccc4cn3)cc21 [Compound 451]
31 | 97% | < 0.1 µM | 100 to 500 nM | 98% | Cn1ccc2ccc(-c3ccc4cnc(CNC(=O)c5ccc6c(c5)[C@](C)(C#N)COC6)cc4n3)cc2c1=O [Compound 452]
32 | 91% | 0.1 to 0.5 µM | 500 to 1000 nM | 61% | Cn1ncc2c1CCN(c1ccc3cnc(CNC(=O)c4ccc5c(c4)[C@](C)(C#N)COC5)cc3n1)C2 [Compound 453]
33 | 97% | < 0.1 µM | 100 to 500 nM | 88% | COc1nn(C)cc1-c1ccc2cnc(CNC(=O)c3ccc4c(c3)[C@](C)(C#N)COC4)cc2n1 [Compound 454]
34 | 94% | 0.1 to 0.5 µM | 500 to 1000 nM | 75% | Cn1cc2c(n1)CCN(c1ccc3cnc(CNC(=O)c4ccc5c(c4)[C@](C)(C#N)COC5)cc3n1)C2 [Compound 455]
35 | 95% | 0.1 to 0.5 µM | 500 to 1000 nM | 80% | C[C@@]1(C#N)COCc2ccc(C(=O)NCc3cc4nc(-c5ccc(N6CCC6)nc5)ccc4cn3)cc21 [Compound 456]
36 | 95% | 0.1 to 0.5 µM | 500 to 1000 nM | 61% | Cn1ncc2c1CN(c1ccc3cnc(CNC(=O)c4ccc5c(c4)[C@](C)(C#N)COC5)cc3n1)CC2 [Compound 457]
37 | 95% | 0.1 to 0.5 µM | 500 to 1000 nM | 74% | Cn1cc2c(n1)CN(c1ccc3cnc(CNC(=O)c4ccc5c(c4)[C@](C)(C#N)COC5)cc3n1)CC2 [Compound 458]
38 | 97% | < 0.1 µM | 100 to 500 nM | 86% | C[C@@]1(C#N)COCc2ccc(C(=O)NCc3cc4nc(-c5ccn6nccc6c5)ccc4cn3)cc21 [Compound 459]
39 | 98% | 0.1 to 0.5 µM | 500 to 1000 nM | 75% | CNC(=O)c1cccc(-c2ccc3cnc(CNC(=O)c4ccc5c(c4)[C@](C)(C#N)COC5)cc3n2)c1F [Compound 460]
40 | 93% | 0.1 to 0.5 µM | 500 to 1000 nM | 65% | Cn1ncc2c1CN(c1ccc3cnc(CNC(=O)c4ccc5c(c4)[C@](C)(C#N)COC5)cc3n1)C2 [Compound 461]
41 | 93% | 0.1 to 0.5 µM | 500 to 1000 nM | 71% | COc1c(-c2ccc3cnc(CNC(=O)c4ccc5c(c4)[C@](C)(C#N)COC5)cc3n2)cnn1C [Compound 462]
42 | 98% | < 0.1 µM | 500 to 1000 nM | 82% | C[C@@]1(C#N)COCc2ccc(C(=O)NCc3cc4nc(-c5ccccc5)cnc4cn3)cc21 [Compound 463]
43 | 88% | 0.1 to 0.5 µM | > 1000 nM | 48% | CN(C)C(=O)c1cccc(-c2ccc3cnc(CNC(=O)c4ccc5c(c4)[C@](C)(C#N)COC5)cc3n2)n1 [Compound 464]
